The values that follow come from patent US9409882B2, “Pyridine derivatives” (Hoffmann-La Roche Inc., priority 2012, dated 2016).

One test deals with human Cat L (Homo sapiens (Human), UniProt P07711). In words: Cathepsin enzyme inhibition assay (fluorogenic peptide substrate), human Cat L. To be noted: human Cat L 1 nM, substrate Z-Val-Val-Arg-AMC 20 μM, pH 6.5. The test is classed as biochemical. As to the method: (§1) Cathepsin Enzyme Inhibition Assay
(§2) Enzyme activity is measured by observing the increase in fluorescence intensity caused by cleavage of a peptide substrate containing a fluorophore whose emission is quenched in the intact peptide.
(§3) Assay buffer: 100 mM potassium phosphate pH 6.5, EDTA-Na 5 mM, Triton X-100 0.001%, DTT 5 mM.
(§4) Enzymes (all at 1 nM): human and mouse Cathepsin S, Cat K, Cat B, Cat L.
(§5) Substrate (20 μM): Z-Val-Val-Arg-AMC, except for Cat K which uses Z-Leu-Arg-AMC (both from Bachem).
(§6) AMC=7-Amino-4-Methyl-Coumarin.
(§7) Excitation 360 nm, Emission 465 nm.
(§8) Enzyme is added to the substance dilutions in 96-well microtitre plates and the reaction is started with substrate. […] IC50 are calculated by standard methods.
(§9) Inhibition of human Cat S, mouse Cat S, human Cat K, human Cat B, human Cat L and mouse Cat L have been measured separately.

The next test has as its target human Cathepsin S (Homo sapiens (Human), UniProt P25774). In words: Cathepsin enzyme inhibition assay (fluorogenic peptide substrate), human Cat S. The test is classed as biochemical. As to conditions: human Cat S 1 nM, substrate Z-Val-Val-Arg-AMC 20 μM, pH 6.5. As to the method: as §1, §2, §3, §4, §5, §6, §7, §8, §9

human Cat L, sequence (P07711 114-333): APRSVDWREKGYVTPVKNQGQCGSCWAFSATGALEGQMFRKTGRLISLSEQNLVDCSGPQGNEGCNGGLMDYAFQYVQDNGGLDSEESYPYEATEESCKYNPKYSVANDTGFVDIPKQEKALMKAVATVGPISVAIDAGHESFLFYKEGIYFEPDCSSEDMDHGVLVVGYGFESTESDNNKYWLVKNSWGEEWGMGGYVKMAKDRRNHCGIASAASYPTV
human Cathepsin S, sequence (P25774 115-331): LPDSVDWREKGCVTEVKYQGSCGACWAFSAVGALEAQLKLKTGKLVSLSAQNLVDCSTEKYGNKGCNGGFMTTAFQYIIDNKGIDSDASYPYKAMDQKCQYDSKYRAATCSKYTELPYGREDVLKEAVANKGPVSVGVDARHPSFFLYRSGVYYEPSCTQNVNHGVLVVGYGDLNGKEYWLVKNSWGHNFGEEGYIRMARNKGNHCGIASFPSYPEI

Molecule `N#CC1(NC(=O)[C@@H]2C[C@@H](S(=O)(=O)c3cccc(-c4ccc(F)cc4)c3)CN2C(=O)C2(c3ncc(Cl)cc3F)CC2)CC1` [Example 13, (2S,4R)-1-[1-(5-Chloro-3-fluoro-pyridin-2-yl)-cyclopropanecarbonyl]-4-(4′-fluorobiphenyl-3-sulfonyl)-pyrrolidine-2-carboxylic acid (1-cyano-cyclopropyl)-amide] registered an IC50 on human Cat L of 247 nM.

On to `N#CC1(NC(=O)[C@@H]2C[C@@H](S(=O)(=O)c3ccc(-c4ccnc(Cl)c4)cc3Cl)CN2C(=O)C2(c3ncc(Cl)cc3F)CC2)CC1` [Example 32, (2S,4R)-4-[2-Chloro-4-(2-chloro-pyridin-4-yl)-benzenesulfonyl]-1-[1-(5-chloro-3-fluoro-pyridin-2-yl)-cyclopropanecarbonyl]-pyrrolidine-2-carboxylic acid (1-cyano-cyclopropyl)-amide], for which the IC50 against human Cat L was 112 nM; on human Cathepsin S, 0.686 nM. For `N#CC1(NC(=O)[C@@H]2C[C@@H](Sc3cccc(-c4ccc(F)cc4)c3)CN2C(=O)C2(c3ncc(Cl)cc3F)CC2)CC1` [Example 9, (2S,4R)-1-[1-(5-Chloro-3-fluoro-pyridin-2-yl)-cyclopropanecarbonyl]-4-(4′-fluorobiphenyl-3-ylsulfanyl)-pyrrolidine-2-carboxylic acid (1-cyano-cyclopropyl)-amide], the IC50 against human Cat L turned out to be 416 nM; against human Cathepsin S, 11.8 nM. The matching figures for `Cc1ncccc1-c1ccc(S(=O)(=O)[C@@H]2C[C@@H](C(=O)NC3(C#N)CC3)N(C(=O)C3(c4ncc(Cl)cc4F)CC3)C2)c(Cl)c1` [Example 34, (2S,4R)-1-[1-(5-Chloro-3-fluoro-pyridin-2-yl)-cyclopropanecarbonyl]-4-[2-chloro-4-(2-methyl-pyridin-3-yl)-benzenesulfonyl]-pyrrolidine-2-carboxylic acid (1-cyano-cyclopropyl)-amide]: 64.2 nM and 0.322 nM. The like results for `Cn1cc(-c2ccc(S(=O)(=O)[C@@H]3C[C@@H](C(=O)NC4(C#N)CC4)N(C(=O)C4(c5ncc(C(F)(F)F)cc5F)CC4)C3)c(Cl)c2)cn1` [Example 39, (2S,4R)-4-[2-Chloro-4-(1-methyl-1H-pyrazol-4-yl)-benzenesulfonyl]-1-[1-(3-fluoro-5-trifluoromethyl-pyridin-2-yl)-cyclopropanecarbonyl]-pyrrolidine-2-carboxylic acid (1-cyano-cyclopropyl)-amide] were, in that order, 43.6 nM and 0.696 nM.

Turning to `Cc1cccc(S(=O)(=O)[C@@H]2C[C@@H](C(=O)NC3(C#N)CC3)N(C(=O)C3(c4ncc(Cl)cc4F)CC3)C2)n1` [Example 23, (2S,4R)-1-[1-(5-Chloro-3-fluoro-pyridin-2-yl)-cyclopropanecarbonyl]-4-(6-methylpyridine-2-sulfonyl)-pyrrolidine-2-carboxylic acid (1-cyano-cyclopropyl)-amide], the IC50 against human Cat L turned out to be 5640 nM; against human Cathepsin S, 2.8 nM.

`N#CC1(NC(=O)[C@@H]2C[C@@H](S(=O)(=O)c3ccccc3-n3ccnn3)CN2C(=O)C2(c3ncc(I)cc3F)CC2)CC1` [Example 44, (2S,4R)-1-[1-(3-Fluoro-5-iodo-pyridin-2-yl)-cyclopropanecarbonyl]-4-(2-[1,2,3]triazol-1-yl-benzenesulfonyl)-pyrrolidine-2-carboxylic acid (1-cyano-cyclopropyl)-amide]: the values for the IC50 on human Cat L and against human Cathepsin S were 1560 nM and 2.37 nM, respectively. For the molecule `N#CC1(NC(=O)[C@@H]2C[C@@H](S(=O)(=O)c3ccccc3-n3cccn3)CN2C(=O)C2(c3ncc(Cl)cc3F)CC2)CC1` [Example 46], the values for the IC50 against human Cat L and at human Cathepsin S were 17400 nM and 159 nM, respectively. Take `COc1ccc(S(=O)(=O)[C@@H]2C[C@@H](C(=O)NC3(C#N)CC3)N(C(=O)C3(c4ncc(Br)cc4F)CC3)C2)c(Cl)c1` [Example 7, (2S,4R)-1-[1-(5-Bromo-3-fluoro-pyridin-2-yl)-cyclopropanecarbonyl]-4-(2-chloro-4-methoxy-benzenesulfonyl)-pyrrolidine-2-carboxylic acid (1-cyano-cyclopropyl)-amide]: the concentration for half-maximal inhibition (IC50) against human Cat L came out at 25.5 nM; against human Cathepsin S it was 0.734 nM. The matching figures for `N#CC1(NC(=O)[C@@H]2C[C@@H](S(=O)(=O)c3ccccc3-n3cncn3)CN2C(=O)C2(c3ncc(I)cc3F)CC2)CC1` [Example 45, (2S,4R)-1-[1-(3-Fluoro-5-iodo-pyridin-2-yl)-cyclopropanecarbonyl]-4-(2-[1,2,4]triazol-1-yl-benzenesulfonyl)-pyrrolidine-2-carboxylic acid (1-cyano-cyclopropyl)-amide]: 28400 nM and 327 nM. `N#CC1(NC(=O)[C@@H]2C[C@@H](S(=O)(=O)c3ccccn3)CN2C(=O)C2(c3ncc(Cl)cc3F)CC2)CC1` [Example 18, (2S,4R)-1-[1-(5-Chloro-3-fluoro-pyridin-2-yl)-cyclopropanecarbonyl]-4-(pyridine-2-sulfonyl)-pyrrolidine-2-carboxylic acid (1-cyano-cyclopropyl)-amide]: the IC50 at human Cat L was found to be 3430 nM; against human Cathepsin S, 4.24 nM. For `N#CC1(NC(=O)[C@@H]2C[C@@H](Sc3ccc(C(F)(F)F)cn3)CN2C(=O)C2(c3ncc(Cl)cc3F)CC2)CC1` [Example 20, (2S,4R)-1-[1-(5-Chloro-3-fluoro-pyridin-2-yl)-cyclopropanecarbonyl]-4-(5-trifluoromethyl-pyridin-2-ylsulfanyl)-pyrrolidine-2-carboxylic acid (1-cyano-cyclopropyl)-amide], the IC50 against human Cat L was determined as 5060 nM; against human Cathepsin S it was 393 nM. The matching figures for `C[C@H](Oc1ccc(S(=O)(=O)[C@@H]2C[C@@H](C(=O)NC3(C#N)CC3)N(C(=O)C3(c4ncc(Cl)cc4F)CC3)C2)c(Cl)c1)C(F)(F)F` [Example 27, (2S,4R)-1-(1-(5-chloro-3-fluoropyridin-2-yl)cyclopropanecarbonyl)-4-(2-chloro-4-((S)-1,1,1-trifluoropropan-2-yloxy)phenylsulfonyl)-N-(1-cyanocyclopropyl)pyrrolidine-2-carboxamide]: 90 nM and 1.6 nM. The like results for `N#CC1(NC(=O)[C@@H]2C[C@@H](S(=O)(=O)c3ccccc3-n3cncn3)CN2C(=O)C2(c3ncc(Cl)cc3F)CC2)CC1` [Example 48, (2S,4R)-1-[1-(5-Chloro-3-fluoro-pyridin-2-yl)-cyclopropanecarbonyl]-4-(2-[1,2,4]triazol-1-yl-benzenesulfonyl)-pyrrolidine-2-carboxylic acid (1-cyano-cyclopropyl)-amide] were, in that order, 21100 nM and 58.5 nM. The matching figures for `N#CC1(NC(=O)[C@@H]2C[C@@H](Sc3ccc(Cl)cn3)CN2C(=O)C2(c3ncc(Cl)cc3F)CC2)CC1` [Example 17, (2S,4R)-1-[1-(5-Chloro-3-fluoro-pyridin-2-yl)-cyclopropanecarbonyl]-4-(5-chloro-pyridin-2-ylsulfanyl)-pyrrolidine-2-carboxylic acid (1-cyano-cyclopropyl)-amide]: 5650 nM and 264 nM. For `N#CC1(NC(=O)[C@@H]2C[C@@H](Sc3ncccc3Cl)CN2C(=O)C2(c3ncc(Cl)cc3F)CC2)CC1` [Example 10, (2S,4R)-1-[1-(5-Chloro-3-fluoro-pyridin-2-yl)-cyclopropanecarbonyl]-4-(3-chloro-pyridin-2-ylsulfanyl)-pyrrolidine-2-carboxylic acid (1-cyano-cyclopropyl)-amide], half-maximal inhibition on human Cathepsin S (IC50) was put at 964 nM. On to `Cc1cccc(S[C@@H]2C[C@@H](C(=O)NC3(C#N)CC3)N(C(=O)C3(c4ncc(Cl)cc4F)CC3)C2)n1` [Example 19, (2S,4R)-1-[1-(5-Chloro-3-fluoro-pyridin-2-yl)-cyclopropanecarbonyl]-4-(6-methyl-pyridin-2-ylsulfanyl)-pyrrolidine-2-carboxylic acid (1-cyano-cyclopropyl)-amide], for which, on human Cat L, it took 4610 nM to reach half-maximal inhibition (IC50). As to `Cn1cc(-c2ccc(S(=O)(=O)[C@@H]3C[C@@H](C(=O)NC4(C#N)CC4)N(C(=O)C4(c5ncc(Cl)cc5Cl)CC4)C3)c(Cl)c2)cn1` [Example 40, (2S,4R)-4-[2-Chloro-4-(1-methyl-1H-pyrazol-4-yl)-benzenesulfonyl]-1-[1-(3,5-dichloro-pyridin-2-yl)-cyclopropanecarbonyl]-pyrrolidine-2-carboxylic acid (1-cyano-cyclopropyl)-amide], the midpoint of inhibition at human Cathepsin S, the IC50, lay at 0.703 nM.

In turn, `N#CC1(NC(=O)[C@@H]2C[C@@H](S(=O)(=O)c3ncccc3Cl)CN2C(=O)C2(c3ncc(Cl)cc3F)CC2)CC1` [Example 14, (2S,4R)-1-[1-(5-Chloro-3-fluoro-pyridin-2-yl)-cyclopropanecarbonyl]-4-(3-chloropyridine-2-sulfonyl)-pyrrolidine-2-carboxylic acid (1-cyano-cyclopropyl)-amide] gave a concentration for half-maximal inhibition (IC50) against human Cat L of 2120 nM. On human Cat L, `N#CC1(NC(=O)[C@@H]2C[C@@H](Sc3cc(C(F)(F)F)ccc3Cl)CN2C(=O)C2(c3ncc(Cl)cc3F)CC2)CC1` [Example 26, (2S,4R)-1-[1-(5-Chloro-3-fluoro-pyridin-2-yl)-cyclopropanecarbonyl]-4-(2-chloro-5-trifluoromethyl-phenylsulfanyl)-pyrrolidine-2-carboxylic acid (1-cyano-cyclopropyl)-amide] showed a concentration for half-maximal inhibition (IC50) of 52.4 nM.
